Earlier results on two molecules are cited in patent US20020143065A1, “Developing a delivery system for multi-pharmaceutical active materials at various release rates” (priority 2000, published 2002).

For data set [1] the following is noted: compared with tramadol racemate.
For data set [2] the following is noted: gynecological patients, intravenous patient-controlled analgesia.

Take `COc1cccc([C@@]2(O)CCCC[C@@H]2CN(C)C)c1` (single isomer, unassigned) [(+) enantiomer, (+) tramadol]: the opiate-like analgesic effect entry in data set [1] is “considerably enhanced compared with that of tramadol”. In data set [2], the analgesic efficacy result is “more potent in producing analgesia”; the “side effects (nausea and vomiting)” value was “produced more nausea and vomiting”.
`COc1cccc(C2(O)CCCCC2CN(C)C)c1` (racemic) [racemate, tramadol]: in data set [2], the analgesic efficacy result is recorded as “more efficacy than (−) tramadol enantiomer”; the “side effects (nausea and vomiting)” value is reported as “no more side effects than (+) tramadol enantiomer”.
